Measured values from PMC6747315, “Formation of α-Farnesene in Tea (Camellia sinensis) Leaves Induced by Herbivore-Derived Wounding and Its Effect on Neighboring Tea Plants” (International Journal of Molecular Sciences, 2019).

Target: T1, CsAFS (α-farnesene synthase) (Camellia sinensis, UniProt A0A3G3IRF8)
T1 construct: full-length ORF cloned in pET32a (EcoRV/SalI); cloning primers encode N-terminus MDCSKGML and C-terminus LIEPLKIN
T1 sequence (A0A3G3IRF8 1-560): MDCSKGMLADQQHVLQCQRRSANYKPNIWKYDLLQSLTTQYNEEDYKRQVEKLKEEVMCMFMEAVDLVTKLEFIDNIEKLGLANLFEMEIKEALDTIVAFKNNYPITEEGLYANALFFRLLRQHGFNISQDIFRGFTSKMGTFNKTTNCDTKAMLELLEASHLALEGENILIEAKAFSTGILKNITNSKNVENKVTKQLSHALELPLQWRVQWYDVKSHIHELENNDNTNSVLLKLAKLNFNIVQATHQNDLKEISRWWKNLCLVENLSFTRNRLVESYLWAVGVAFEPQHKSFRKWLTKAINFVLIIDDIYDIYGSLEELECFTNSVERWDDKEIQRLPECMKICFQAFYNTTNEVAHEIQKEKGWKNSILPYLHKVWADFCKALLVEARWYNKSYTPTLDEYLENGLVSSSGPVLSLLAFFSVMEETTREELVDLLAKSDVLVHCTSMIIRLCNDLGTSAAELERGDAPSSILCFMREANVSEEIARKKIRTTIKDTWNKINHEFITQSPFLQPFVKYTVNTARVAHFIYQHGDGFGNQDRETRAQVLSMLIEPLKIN
Experiment: SPME GC-MS product analysis
Format: biochemical
Conditions: 15 µg protein in 1 mL, 10 mM MgCl2, 1 mM MnCl2, 500 mM KCl, pH 7.0, 30 °C, 1 h

| SMILES | SPME GC-MS product analysis (product β-ocimene) | SPME GC-MS product analysis (product α-farnesene) |
| --- | --- | --- |
| CC(C)=CCC/C(C)=C/COP(=O)(O)OP(=O)(O)O [geranyl diphosphate] | with geranyl diphosphate (GPP) as substrate, the CsAFS enzyme produced only β-ocimene |  |
| CC(C)=CCC/C(C)=C/CC/C(C)=C/COP(=O)(O)OP(=O)(O)O [farnesyl diphosphate] |  | recombinant protein CsAFS converted substrate farnesyl diphosphate (FPP) into α-farnesene as the final product |
